Source: patent US7320867B2, “Linker compound, ligand, and producing method thereof” (Japan Science and Technology Agency, priority 2000, dated 2008)

How the values were obtained:
[1] = molecular target: recombinant von Willebrand's Factor (rvWF) (Homo sapiens, UniProt P04275); assay: SPR measurement of binding between ligand-introduced chip and rvWF; conditions: for Kd: read-out: Dissociation constant KD
Description: That is, by the procedure described below, a ligand (Compound 14) was immobilized on a surface of a glass substrate with a thin gold film deposited thereon, and the binding behavior of Compound 14 with a recombinant von Willebrand's Factor (hereinafter abbreviated to rvWF), which is a heparin binding protein, was observed.
First, a sensor chip (manufactured by Japan Laser Electronics Co., Ltd.), prepared by depositing a gold film of 50 nm thick on a glass substrate of 13 mm×20 mm×0.7 mm, was placed in a UV ozone washer (product name: NL-UV253, Japan Laser Electronics Co., Ltd.), and was exposed to ultraviolet rays for 20 minutes so as to wash the gold surface of the sensor chip with ozone. Subsequently, the sensor chip was mounted on a Teflon™ cell holder in a cell. The cell, to which 50 μL of a methanol solution containing 0.1 mM of Compound 14 was added, was sealed and then gently shaken overnight at room temperature with a Bio Dancer (product name, New Brunswick Scientific Co., Ltd.). Thereafter, the cell was washed six times with 100 μL of methanol, and the sensor chip was removed from the Teflon™ cell holder. The removed sensor chip was then immersed in a Petri dish full of methanol and washed twice by gently shaking the Petri dish. Thereafter, the sensor chip was washed with water and methanol in this order in the same manner as described above, so as to obtain a ligand-introduced chip (ligand carrier). The ligand carrier was air-dried and then mounted on a sensor chip cartridge (glass prism) of a surface plasmon resonance apparatus SPR670 (product name, Japan Laser Electronics Co., Ltd.).
Except that an rvWF solution was used instead of the BSA solution (5-2) injected onto the ligand-introduced chip (obtained in 5-1), the same procedure as in (5-2) was carried out to inject the rvWF solution onto the surface of the ligand-introduced chip. It is to be noted that rvWF was dissolved in the running buffer so as to prepare an rvWF solution with a concentration of 125 nM to 1600 nM.
The rvWF solution was injected onto the surface of the ligand-introduced chip at varying concentrations, and a response (RU; response unit) based on bonding between Compound 14 and rvWF was measured as a function of injection time (sec) of the rvWF solution using the surface plasmon resonance apparatus. […]
In addition, a dissociation constant (KD), a binding rate constant (ka), and a dissociation rate constant (kd) were calculated, using software attached to the surface plasmon resonance apparatus (SPR670), based on a result (FIG. 1) yielded by observing the binding behavior of Compound 14 (ligand) with rvWF.
Then, except that the Compound 25 was used instead of the Compound 14, the procedure in (5-1) of Example 5 was followed to obtain a ligand-introduced chip. […] Thereafter, according the procedure in (5-3) of Example 5, the rvWF solution was injected onto the surface of the ligand-introduced chip, and changes in resonance angle as a function of injection time of the rvWF solution was measured using the surface plasmon resonance apparatus, so as to examine the binding behavior of Compound 25 with rvWF.
In addition, a dissociation constant (KD), a binding rate constant (ka), and a dissociation rate constant (kd) were calculated, based on FIG. 2, according to the procedure in (5-3) of Example 5.

[2] = molecular target: bovine serum albumin (BSA) (Bos taurus, UniProt P02769); assay: SPR examination of nonspecific (hydrophobic) interaction between ligand-introduced chip and protein; format: binding; conditions: BSA 1 mg/mL in PBS pH 7.4, 60 μL at 15 μL/min, 25° C.
[3] = ligand immobilized on gold sensor chip, rvWF 125 nM to 1600 nM in PBS pH 7.4, 25° C., calculated with SPR670 software

Chain of recombinant von Willebrand's Factor (rvWF) (P04275 23-2813): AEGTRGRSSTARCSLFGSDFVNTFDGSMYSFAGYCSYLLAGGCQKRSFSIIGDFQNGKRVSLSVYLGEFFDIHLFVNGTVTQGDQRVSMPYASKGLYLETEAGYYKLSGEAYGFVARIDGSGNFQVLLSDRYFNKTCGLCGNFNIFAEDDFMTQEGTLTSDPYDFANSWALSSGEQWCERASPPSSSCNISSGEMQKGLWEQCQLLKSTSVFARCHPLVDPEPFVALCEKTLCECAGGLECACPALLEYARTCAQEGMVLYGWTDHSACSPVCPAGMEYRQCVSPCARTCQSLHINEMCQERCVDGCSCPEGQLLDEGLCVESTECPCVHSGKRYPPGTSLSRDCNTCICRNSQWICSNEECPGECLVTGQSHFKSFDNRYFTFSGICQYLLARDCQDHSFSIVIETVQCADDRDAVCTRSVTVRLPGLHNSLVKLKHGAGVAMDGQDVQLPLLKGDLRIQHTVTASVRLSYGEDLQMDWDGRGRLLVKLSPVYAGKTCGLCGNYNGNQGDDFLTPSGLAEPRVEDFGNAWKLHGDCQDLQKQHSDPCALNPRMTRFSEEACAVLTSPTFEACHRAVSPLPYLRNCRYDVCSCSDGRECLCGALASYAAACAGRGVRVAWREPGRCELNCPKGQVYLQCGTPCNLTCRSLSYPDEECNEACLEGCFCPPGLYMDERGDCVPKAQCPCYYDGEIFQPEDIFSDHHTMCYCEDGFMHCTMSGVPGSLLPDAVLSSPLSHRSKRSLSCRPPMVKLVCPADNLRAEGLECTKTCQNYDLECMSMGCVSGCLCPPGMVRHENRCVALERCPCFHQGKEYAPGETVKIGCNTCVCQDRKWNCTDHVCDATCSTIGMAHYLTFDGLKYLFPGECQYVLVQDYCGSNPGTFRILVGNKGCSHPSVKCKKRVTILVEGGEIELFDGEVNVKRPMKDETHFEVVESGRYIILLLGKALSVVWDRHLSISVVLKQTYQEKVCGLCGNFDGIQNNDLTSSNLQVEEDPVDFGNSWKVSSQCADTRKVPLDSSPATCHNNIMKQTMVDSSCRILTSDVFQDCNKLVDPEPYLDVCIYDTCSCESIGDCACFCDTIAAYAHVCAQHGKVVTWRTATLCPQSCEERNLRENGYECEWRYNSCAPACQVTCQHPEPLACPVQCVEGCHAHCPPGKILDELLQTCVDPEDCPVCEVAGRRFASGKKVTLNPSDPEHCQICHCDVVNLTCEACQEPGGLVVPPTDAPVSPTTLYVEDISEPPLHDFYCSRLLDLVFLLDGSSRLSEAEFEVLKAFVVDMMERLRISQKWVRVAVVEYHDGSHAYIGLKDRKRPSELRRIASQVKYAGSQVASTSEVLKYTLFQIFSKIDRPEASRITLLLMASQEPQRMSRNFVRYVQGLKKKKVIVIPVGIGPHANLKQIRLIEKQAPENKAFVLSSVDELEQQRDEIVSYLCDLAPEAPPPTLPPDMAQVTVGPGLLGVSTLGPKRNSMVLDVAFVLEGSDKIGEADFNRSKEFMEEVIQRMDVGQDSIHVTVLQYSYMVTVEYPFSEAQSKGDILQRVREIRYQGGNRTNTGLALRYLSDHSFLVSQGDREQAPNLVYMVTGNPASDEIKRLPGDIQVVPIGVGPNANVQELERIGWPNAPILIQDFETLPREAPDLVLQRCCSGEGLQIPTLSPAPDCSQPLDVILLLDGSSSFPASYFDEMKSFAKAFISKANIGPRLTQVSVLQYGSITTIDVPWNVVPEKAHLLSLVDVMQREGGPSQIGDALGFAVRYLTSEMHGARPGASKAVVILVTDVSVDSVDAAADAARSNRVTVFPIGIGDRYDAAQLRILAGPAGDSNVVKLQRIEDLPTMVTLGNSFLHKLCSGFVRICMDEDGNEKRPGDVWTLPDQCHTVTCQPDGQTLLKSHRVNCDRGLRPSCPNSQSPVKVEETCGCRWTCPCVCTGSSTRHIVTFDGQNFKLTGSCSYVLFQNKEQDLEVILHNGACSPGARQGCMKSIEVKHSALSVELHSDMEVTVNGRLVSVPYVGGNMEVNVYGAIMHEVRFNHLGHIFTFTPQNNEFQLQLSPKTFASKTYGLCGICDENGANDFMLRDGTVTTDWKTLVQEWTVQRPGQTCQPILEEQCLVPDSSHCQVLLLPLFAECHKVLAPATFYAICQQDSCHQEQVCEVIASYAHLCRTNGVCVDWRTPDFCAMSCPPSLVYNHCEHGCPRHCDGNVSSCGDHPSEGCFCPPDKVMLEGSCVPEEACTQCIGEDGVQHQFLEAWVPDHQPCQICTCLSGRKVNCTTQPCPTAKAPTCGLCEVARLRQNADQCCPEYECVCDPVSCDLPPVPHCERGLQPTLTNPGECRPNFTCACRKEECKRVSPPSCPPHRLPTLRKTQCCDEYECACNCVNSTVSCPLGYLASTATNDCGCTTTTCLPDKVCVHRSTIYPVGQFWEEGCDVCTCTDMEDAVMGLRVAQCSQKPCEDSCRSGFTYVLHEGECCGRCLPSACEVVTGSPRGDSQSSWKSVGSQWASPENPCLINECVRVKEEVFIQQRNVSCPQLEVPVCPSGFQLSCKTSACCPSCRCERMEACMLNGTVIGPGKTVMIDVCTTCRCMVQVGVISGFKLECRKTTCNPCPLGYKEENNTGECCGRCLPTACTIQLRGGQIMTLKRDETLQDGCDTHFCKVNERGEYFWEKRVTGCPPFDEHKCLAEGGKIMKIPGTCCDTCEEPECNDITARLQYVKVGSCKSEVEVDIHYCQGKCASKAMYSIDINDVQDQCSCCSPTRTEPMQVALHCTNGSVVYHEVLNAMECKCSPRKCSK
Chain of bovine serum albumin (BSA) (P02769 25-607): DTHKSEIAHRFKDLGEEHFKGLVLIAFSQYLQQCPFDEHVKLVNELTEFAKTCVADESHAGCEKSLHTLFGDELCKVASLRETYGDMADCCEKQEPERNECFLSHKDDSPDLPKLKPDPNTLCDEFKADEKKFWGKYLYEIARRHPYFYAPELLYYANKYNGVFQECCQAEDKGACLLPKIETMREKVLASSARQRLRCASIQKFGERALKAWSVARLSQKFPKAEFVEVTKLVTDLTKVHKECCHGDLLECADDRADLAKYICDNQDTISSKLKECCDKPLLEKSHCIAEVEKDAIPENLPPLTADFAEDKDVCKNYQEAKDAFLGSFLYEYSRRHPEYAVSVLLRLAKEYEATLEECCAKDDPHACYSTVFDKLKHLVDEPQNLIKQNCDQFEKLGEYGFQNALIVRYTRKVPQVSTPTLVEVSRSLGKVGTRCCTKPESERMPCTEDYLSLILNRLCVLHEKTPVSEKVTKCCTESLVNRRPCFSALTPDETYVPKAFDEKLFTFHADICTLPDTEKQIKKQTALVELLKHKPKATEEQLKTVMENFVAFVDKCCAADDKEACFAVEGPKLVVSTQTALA

Structure (SMILES)	Affinity for rvWF compared with ligand-introduced chip using Compound 25 ([1]; comparison from Table 1)	Kd [1, 3] [µM]	Nonspecific interaction based on hydrophobic interaction (resonant angle change) [2]	kon ([1]; ligand immobilized on gold sensor chip, rvWF 125 nM to 1600 nM in PBS pH 7.4, 25° C., calculated with SPR670 software, read-out: Binding rate constant ka) [M⁻¹ s⁻¹]	koff ([1]; ligand immobilized on gold sensor chip, rvWF 125 nM to 1600 nM in PBS pH 7.4, 25° C., calculated with SPR670 software, read-out: Dissociation rate constant kd) [s⁻¹]
COC1C(COS(=O)(=O)O)OC(OC2C(C(=O)O)OC(OCC(O)C(O)C(O)C(O)CNc3cccc(NC(=O)CCC(CCC(=O)Nc4cccc(NCC(O)C(O)C(O)C(O)COC5OC(C(=O)O)C(OC6OC(COS(=O)(=O)O)C(OC)C(O)C6NS(=O)(=O)O)C(O)C5OS(=O)(=O)O)c4)(CCC(=O)Nc4cccc(NCC(O)C(O)C(O)C(O)COC5OC(C(=O)O)C(OC6OC(COS(=O)(=O)O)C(OC)C(O)C6NS(=O)(=O)O)C(O)C5OS(=O)(=O)O)c4)NC(=O)CNC(=O)CCCCC4CCSS4)c3)C(OS(=O)(=O)O)C2O)C(NS(=O)(=O)O)C1O (stereo not shown) [Compound 14]	higher affinity for rvWF	1.2	almost no resonant angle change		
COC1C(COS(=O)(=O)O)OC(OC2C(C(=O)O)OC(OCC(O)C(O)C(O)C(O)CNc3cccc(NC(=O)CCCCC4CCSS4)c3)C(OS(=O)(=O)O)C2O)C(NS(=O)(=O)O)C1O (stereo not shown) [Compound 25]		2.6	no nonspecific interaction	8380	0.0219
